# Experimental data as given in patent US12208111B2 (LUNELLA BIOTECH, INC., priority 2018, dated 2025).
# Where two headings read alike, the source gives them in different places.
# What was measured:
# Assay type in all cases: cell-based, human
# MRC-5 fibroblasts = test: DNA synthesis / cell cycle, Muse cell cycle kit; settings: two-day treatment with BrdU
# Procedure: The […] […] Autophagy and Cell cycle analysis: Autophagy (using MuseTMM Autophagy LC3-antibody based Kit, Merck Millipore) and cell cycle (Muse® Cell Cycle Kit, Merck Millipore) experiments were performed according to manufacturer's instructions.
# MRC-5 cells = test: Beta-galactosidase staining; settings: 8 days of BrdU treatment
# Procedure: Furthermore, the inventors validated the use of BrdU-induced DNA-damage as being sufficient to induce cellular senescence. […] The results evidence that the cells treated with BrdU underwent cell cycle arrest, as evidenced by both a ˜70% reduction in the number of cells in S-phase, and the induction of beta-galactosidase activity.
# Beta-Gal staining: Beta-Galactosidase staining of BrdU-treated MRC-5 cells was performed by Senescence B-Galactosidase Staining Kit (#9860, Cell Signalling Technology Inc.) and was done according to manufacturer's protocol.
# senescent MRC-5 cells [1] = test: SRB assay, viability of BrdU-induced senescent MRC-5 fibroblasts
# Procedure: (§1) Bromodeoxyuridine (5-bromo-2′-deoxyuridine), also known as BrdU, may be used to induce senescence. BrdU is an analog of the nucleoside thymidine commonly used to identify proliferating cells. BrdU induces controlled DNA damage, and drives cells towards senescence with high efficiency. The BrdU assay of the present approach calls for subjecting normal fibroblasts to prolonged culture (8-days) in the presence of BrdU at 100 μM to induce controlled DNA-damage and senescence. […] Then, isogenically-matched cultures of normal and senescent fibroblasts may be used for drug screening to identify drugs having senolytic activity. Senolytic activity may be detected using the sulforhodamine B assay, also known in the art as the SRB assay. This assay measures the amount of protein remaining attached to the tissue-culture dishes, and is a surrogate marker for cell viability. This approach may be used to rapidly screen compounds, including clinically-approved drugs, such as, for example, antibiotics. […] It should be appreciated that the present approach may be used to screen other compounds.
# After that, the SRB assay was performed to determine the effects of the drug on cell viability. […] The scale bar in the upper-right of FIGS. 3B and 3C represents 20 μm.
# After the 5-day exposure, the SRB assay was performed to determine the effects of the drug on cell viability. […] The * indicates p<0.05 in FIG. 4.
# MRC-5 or BJ cells were plated into 24-well plates. Next day, half of the plate was treated with 100 μM of BrdU while control wells were treated with vehicle only (DMSO) and incubated for 8 days at 37° C. in a 5% CO2 humidified atmosphere. […] BrdU is washed out before the drug treatments.
# Sulphorhodamine B assay: After the incubation of the plates cell viability was measured by Sulphorhodamine B assay (SRB). The assay is based on the measurement of cellular protein contents. Cells were fixed with 10% Trichloroacetic acid (TCA) for 1 hour at 4 °C, and were dried overnight at room temperature. Then, plates were incubated with SRB for 30 min, washed twice with 1% acetic acid and air dried for at least 1 h. Finally, the protein-bound dye was dissolved in a 10 mM Tris, pH 8.8, solution and read using a plate reader at 540-nm.
# [2] = test system: normal MRC-5 lung fibroblasts; test: SRB assay, viability of normal MRC-5 fibroblasts; settings: 100 μM, 5 days
# Procedure: as §1, with “compounds. […]” for “compounds.”
# Sulphorhodamine B assay: After the incubation of the plates cell viability was measured by Sulphorhodamine B assay (SRB). […] Finally, the protein-bound dye was dissolved in a 10 mM Tris, pH 8.8, solution and read using a plate reader at 540-nm.
# senescent MRC-5 cells [3] = test: xCELLigence real-time cell analysis, senescent (BrdU-treated) MRC-5 fibroblasts; settings: 90 μM, 5 days after BrdU wash out
# Excerpt: (§2) In further application of the present approach, the selectivity of azithromycin towards senescent cells was validated using the xCELLigence system. Because senescent cells undergo the so-called senescence-associated secretory phenotype (SASP), which involves dramatic increases in the synthesis and secretion of proteins, the inventors assessed whether the protein measurement assay system under-estimates the senolytic activity of tested compounds. […] The normalized cell index for the control was noticeably higher immediately after treatment, and coincided with the BrdU-only curve until about hour 235. […] For the data shown in FIGS. 9A and 9B, the **** indicates p<0.001. The real-time xCELLigence assay system thus compliments the more static SRB assay, and offers a more direct visualization of the potential senolytic effects of compounds during drug screening. The xCELLigence assays were also used to confirm senolytic activity for roxithromycin and telithromycin. […] MRC-5 fibroblasts were used for these assays. […] Note that in FIG. 10A. * indicates p<0.01. From top to bottom at time 249 hours, the lines represent the control, BrdU-only, Control with roxithromycin (90 μM), and BrdU with roxithromycin. […] The same approach was used to confirm senolytic activity for telithromycin. […] This approach allows the quantification of the onset and kinetics of the cellular response. […]
# [4] = test system: normal control MRC-5 cells; test: xCELLigence real-time cell analysis, normal MRC-5 fibroblasts; settings: 90 μM
# Excerpt: as §2
SMILES,reduction of DNA synthesis (MRC-5 fibroblasts) [%],beta-galactosidase staining (biomarker of cellular senescence) (MRC-5 cells),senolytic activity in the screening assay (senescent MRC-5 cells [1]),Viability of senescent MRC-5 cells (% versus control) (senescent MRC-5 cells [1]; 50 μM) [%],Viability of senescent MRC-5 cells (% versus control) (senescent MRC-5 cells [1]; 100 μM) [%],"effect on senescent MRC-5 cell viability (senescent MRC-5 cells [1]; 50 μM, 5 days)",senolytic activity in the screening assay (senescent MRC-5 cells [1]; 100 μM),effect on viability of normal MRC-5 fibroblasts [2],senescent MRC-5 cells targeted (final cell index) (senescent MRC-5 cells [3]) [%],effect on viability of normal MRC-5 fibroblasts (final cell index) [4]
"O=c1[nH]c(=O)n([C@H]2C[C@H](O)[C@@H](CO)O2)cc1Br [BrdU, 5-bromo-2′-deoxyuridine]",~70,positively stained,–,–,–,–,–,–,–,–
"CC[C@H]1OC(=O)[C@H](C)[C@@H](O[C@H]2C[C@@](C)(OC)[C@@H](O)[C@H](C)O2)[C@H](C)[C@@H](O[C@@H]2O[C@H](C)C[C@H](N(C)C)[C@H]2O)[C@](C)(O)C[C@@H](C)C(=O)[C@H](C)[C@@H](O)[C@]1(C)O [Erythromycin, erythromycin]",–,–,did not show any senolytic activity,100,100,–,–,–,–,–
"CC[C@H]1OC(=O)[C@H](C)[C@@H](O[C@H]2C[C@@](C)(OC)[C@@H](O)[C@H](C)O2)[C@H](C)[C@@H](O[C@@H]2O[C@H](C)C[C@H](N(C)C)[C@H]2O)[C@](C)(O)C[C@@H](C)/C(=N\OCOCCOC)[C@H](C)[C@@H](O)[C@]1(C)O [Roxithromycin, roxithromycin]",–,–,–,100,30.99,no effect,have senolytic activity,small effect,82,minimal effect
"CC[C@H]1OC(=O)[C@H](C)C(=O)[C@H](C)[C@@H](O[C@@H]2O[C@H](C)C[C@H](N(C)C)[C@H]2O)[C@](C)(OC)C[C@@H](C)C(=O)[C@H](C)[C@H]2N(CCCCn3cnc(-c4cccnc4)c3)C(=O)O[C@]12C [Telithromycin, telithromycin]",–,–,showed beneficial senolytic activity,–,–,–,–,–,100,negligible impact
